According to patent US20260315446A1, “ANTIFUNGAL COMPOUNDS AND USES THEREOF” (priority 2023, published 2026):

Tests used:
[1] = system: Cryptococcus deneoformans; assay: MIC assay (Example 3); assay type: cell-based; settings: 72 hours with 5 times starting amount of cells
Procedure: For the lead compound JH-FK-08, the mechanism of action resulting in antifungal activity was tested for conservation of calcineurin inhibition. To probe the JH-FK-08 mechanism of action, MICs of JH-FK-08 were determined with fungal mutants that lack the drug-binding protein FKBP12 or have mutations in the binding site on calcineurin that prevent FKBP12-FK506 binding and inhibition. […] Taken together, these findings support the hypothesis that JH-FK-08 requires FKBP12 for antifungal activity, and the target of the FKBP12-JH-FK-08 complex is calcineurin. The length of time that drugs are active in vivo is critical information relevant to drug development, and the time frame of drug activity can have a drastic impact on treatment regimen and efficacy. Therefore, the pharmacokinetic profiles of FK506 and JH-FK-08 were investigated. Three male and three female CD1 mice were administered a single dose of JH-FK-08 or FK506 at 40 mg/kg. Whole blood samples were taken over a 24-hour period, and the drug concentration remaining in the blood was determined. Pharmacokinetic parameters were calculated using a non-compartmental approach (see, Gabrielsson J, Weiner D. 2012. Methods Mot Biol Clifton NJ 929:377-389). […] When assessing specific pharmacokinetic measures, sex differences began to emerge.
In vitro antifungal activity was assessed for all fungal strains in RPMI 1640 (Sigma-Aldrich R1383). MICs were measured using Clinical and Laboratory Standards Institute (CLSI) M38-A2 and M27-A3 standard in vitro antifungal susceptibility protocols. C. neoformans and A. fumigatus testing was performed at 37° C. MECs for A. fumigatus were recorded after 48 h of growth. C. albicans testing was performed at 30° C. with a uniform concentration of 2 μg/mL of fluconazole to sensitize the cells to calcineurin inhibition.
C. neoformans clinical isolate H99 and congenic-derived strain KN99α were used (see, Nielsen K, et al., 2003. Infect Immun 71:4831-4841). […]

[2] = system: Aspergillus fumigatus (akuBKu80 hFKBP12); assay: MIC/MEC against humanized A. fumigatus strain; assay type: cell-based
Procedure: To confirm that JH-FK-05 was fungal FKBP12-dependent, a humanized A. fumigatus strain (the akuB^Ku80 hFKBP12 strain) expressing a codon-optimized human FKBP12 gene from the Affkbp12 native locus was utilized.
In vitro antifungal activities of FK506, FK520, and analogs were assessed in RPMI 1640 (Sigma-Aldrich) for all strains tested. MICs/minimum effective concentrations (MECs) for each drug were measured using modified Clinical and Laboratory Standards Institute (CLSI) M38-A2 and M27-A3 standard in vitro antifungal susceptibility protocols. Broth microdilution assays for MIC/MEC assessment were performed as described previously (see, Juvvadi P R, et al., 2019, Nat Commun 10:4275). All antifungal assays with C. neoformans were performed at 37° C. Antifungal susceptibility testing for C. albicans was performed in the presence of a uniform 1 μg/mL concentration of fluconazole to sensitize the organism to calcineurin inhibition.

CC[C@@H]1/C=C(\C)C[C@H](C)C[C@H](OC)[C@H]2O[C@@](O)(C(=O)C(=O)N3CCCC[C@H]3C(=O)O[C@H](/C(C)=C/C3CC[C@@H](O)[C@H](OC)C3)[C@H](C)[C@@H](O)C/C1=N/NC(=O)OC)[C@H](C)C[C@@H]2OC (some centres unmarked) [JH-FK-08]
MIC/MEC ([1]; strain C21F2 (JEC21 CNB1-1)): >25 µg/mL | MIC/MEC ([1]; strain C21F3 (JEC21 frr1)): >25 µg/mL | MIC/MEC ([1]; strain JEC21): <0.4 µg/mL

CC[C@@H]1/C=C(\C)C[C@H](C)C[C@H](OC)[C@H]2O[C@@](O)(C(=O)C(=O)N3CCCC[C@H]3C(=O)O[C@H](/C(C)=C/[C@@H]3CC[C@@H](O)[C@H](OC)C3)[C@H](C)[C@@H](O)C/C1=N/NC(C)=O)[C@H](C)C[C@@H]2OC [JH-FK-05]
antifungal activity against hFKBP12-expressing A. fumigatus strain [2]: no detectable antifungal activity | MIC/MEC ([2]; strain akuBKu80 hFKBP12): >8 µg/mL
